According to patent US8791107B2, “N-substituted oxazinopteridines and oxazinopteridinones” (Takeda Pharmaceutical Company Limited, priority 2011, dated 2014):

Molecular target: T1, PI3Kδ (Homo sapiens, UniProt O00329)
T1 construct: The protein is full length and co-expressed with untagged PIK3R1; GST; purchased Invitrogen PV5274
Assay: PI3Kδ inhibition, modified PIK3CD Adapta TR-FRET assay
Type: biochemical
Conditions: recombinant GST-tagged full length PIK3CD co-expressed with PIK3R1 (p85α); 2 μM ATP, 50 μM PIP2
Experimental: The activity of compounds as PI3Kδ inhibitors may be determined by a variety of methods, including in vitro and in vivo methods. The following in vitro assay measures a test compound's ability to inhibit PI3Kδ-mediated phosphorylation of PIP2 and ATP.
Recombinant GST-tagged PIK3CD is purchased from Invitrogen (Part Number: PV5274). The protein is full length and co-expressed with untagged PIK3R1, phosphoinositide-3-kinase regulatory subunit 1 (p85α). The protein is stored at −20° C. in 50 mM TRIS (pH 7.5), 150 mM NaCl, 0.5 mM EDTA, 0.02% Triton® X-100, 2 mM DTT, and 50% glycerol.
A modified PIK3CD Adapta® assay (Invitrogen, Carlsbad, Calif.) is used to measure PI3Kδ inhibition of the example compounds. The assay has two phases. In the first phase, kinase reaction components, which include the enzyme (PIK3CD), substrates (PIP2, ATP), test compound (inhibitor), and assay buffer are added to each well, and the reaction is allowed to incubate for a pre-determined period of time. […] In the presence of the inhibitor, the amount of ADP formed by the kinase reaction is reduced, and the resulting intact antibody-tracer interaction maintains a high TR-FRET signal.
The reaction buffer contains 50 mM Hepes (pH 7.5), 3 mM MgCl2, 1 mM EGTA, 100 mM NaCl, 0.03% CHAPS; 2 mM DTT is added fresh prior to each experiment. […] Next, test compounds (2 μL) from a source plate (5% dilution plate) are introduced into the wells. The final DMSO concentration in each assay well is 1%. […] Other wells contain test compounds serially diluted across the plate 11 times for a total of 12 data points. The kinase reactions are carried out at room temperature and are initiated by the addition of 4 μL of solution containing 2 μM ATP and 50 μM PIP2. […] This emission signal is referenced or “ratioed” to the emission from Eu at 620 nm. […] The percent inhibition for a given inhibitor concentration is computed from % conversion for the reaction and for the positive and negative controls.

T1 sequence (O00329 whole entry): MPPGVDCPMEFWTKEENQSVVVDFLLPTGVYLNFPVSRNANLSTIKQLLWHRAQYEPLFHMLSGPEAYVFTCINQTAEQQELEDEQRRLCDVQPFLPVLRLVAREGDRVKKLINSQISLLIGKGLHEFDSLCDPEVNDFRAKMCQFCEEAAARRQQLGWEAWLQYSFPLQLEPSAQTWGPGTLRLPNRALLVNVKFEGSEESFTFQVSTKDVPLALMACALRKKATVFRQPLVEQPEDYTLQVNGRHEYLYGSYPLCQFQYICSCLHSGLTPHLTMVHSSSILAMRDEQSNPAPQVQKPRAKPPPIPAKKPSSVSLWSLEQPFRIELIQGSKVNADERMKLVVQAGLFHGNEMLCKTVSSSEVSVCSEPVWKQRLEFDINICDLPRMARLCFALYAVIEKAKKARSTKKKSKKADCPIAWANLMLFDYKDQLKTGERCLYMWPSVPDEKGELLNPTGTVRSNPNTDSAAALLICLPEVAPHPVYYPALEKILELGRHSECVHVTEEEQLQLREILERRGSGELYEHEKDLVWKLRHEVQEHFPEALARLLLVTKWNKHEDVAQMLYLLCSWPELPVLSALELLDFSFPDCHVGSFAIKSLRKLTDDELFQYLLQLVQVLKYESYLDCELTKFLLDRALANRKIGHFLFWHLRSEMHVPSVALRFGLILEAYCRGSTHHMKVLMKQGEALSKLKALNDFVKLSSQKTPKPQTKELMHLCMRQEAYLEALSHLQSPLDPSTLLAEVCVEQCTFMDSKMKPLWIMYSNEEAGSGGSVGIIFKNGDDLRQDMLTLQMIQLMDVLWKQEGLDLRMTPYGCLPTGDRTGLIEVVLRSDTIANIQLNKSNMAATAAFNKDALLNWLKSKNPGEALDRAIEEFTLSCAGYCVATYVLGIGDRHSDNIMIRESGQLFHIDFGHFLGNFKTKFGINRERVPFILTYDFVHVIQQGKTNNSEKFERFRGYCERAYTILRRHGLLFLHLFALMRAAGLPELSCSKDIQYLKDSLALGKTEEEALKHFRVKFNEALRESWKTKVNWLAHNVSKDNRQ
T1 sequence (P27986 whole entry partner): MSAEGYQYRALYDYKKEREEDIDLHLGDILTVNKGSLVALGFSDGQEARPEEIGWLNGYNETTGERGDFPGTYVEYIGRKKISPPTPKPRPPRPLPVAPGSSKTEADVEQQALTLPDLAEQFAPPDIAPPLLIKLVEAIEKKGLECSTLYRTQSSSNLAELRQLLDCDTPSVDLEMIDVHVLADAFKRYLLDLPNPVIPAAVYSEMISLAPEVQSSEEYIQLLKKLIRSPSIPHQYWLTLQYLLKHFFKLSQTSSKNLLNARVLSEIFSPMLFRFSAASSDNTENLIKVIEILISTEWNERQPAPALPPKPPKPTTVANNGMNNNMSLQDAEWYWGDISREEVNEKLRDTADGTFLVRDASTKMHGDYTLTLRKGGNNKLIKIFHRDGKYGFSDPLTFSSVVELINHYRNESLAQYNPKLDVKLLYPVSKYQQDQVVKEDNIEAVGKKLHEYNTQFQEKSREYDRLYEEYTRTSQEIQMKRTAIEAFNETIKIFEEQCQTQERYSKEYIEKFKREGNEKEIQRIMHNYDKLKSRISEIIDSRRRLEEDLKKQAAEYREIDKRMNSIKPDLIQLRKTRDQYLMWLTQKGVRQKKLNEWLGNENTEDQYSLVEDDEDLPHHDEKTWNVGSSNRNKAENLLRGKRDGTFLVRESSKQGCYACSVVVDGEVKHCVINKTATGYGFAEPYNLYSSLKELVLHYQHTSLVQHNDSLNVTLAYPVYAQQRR

PI3Kδ Inhibition (pIC50)	SMILES
8.1	CNC(=O)Nc1ccc(-c2ncc3c(n2)N2CCOC[C@H]2C(=O)N3[C@@H](C)c2ccc(C)cc2)cc1 (single isomer, unassigned) [Example 86]
7.1	CNC(=O)Nc1ccc(-c2ncc3c(n2)N2CCOC[C@@H]2C(=O)N3[C@@H](C)c2ccc(C)cc2)cc1 (single isomer, unassigned) [Example 87]

Same assay, conditions: recombinant GST-tagged full length PIK3CD co-expressed with PIK3R1 (p85α); 2 μM ATP, 50 μM PIP2; read-out: PI3Kδ Inhibition (pIC50) (converted)

IC50 [nM]	SMILES
1000	C[C@@H](c1ccccc1)N1C(=O)C2COCCN2c2nc(-c3cc[nH]n3)ncc21 (mixture of isomers) [Example 97, 5-((5)-1-phenylethyl)-2-(1H-pyrazol-3-yl)-6a,7,9,10-tetrahydro-[1,4]oxazino[3,4-h]pteridin-6(5H)-one]
6.31	C[C@@H](c1ccc(Cl)cc1)N1C(=O)C2COCCN2c2nc(-c3cnc(N)nc3)ncc21 (mixture of isomers) [Example 162]
31.6	C[C@@H](c1ccc(Cl)cc1)N1C(=O)C2COCCN2c2nc(-c3cccc4[nH]ccc34)ncc21 (mixture of isomers) [Example 163, 5-((S)-1-(4-chlorophenyl)ethyl)-2-(1H-indol-4-yl)-6a,7,9,10-tetrahydro-[1,4]oxazino[3,4-h]pteridin-6(5H)-one]
12.6	CNC(=O)Nc1ccc(-c2ncc3c(n2)N2CCOCC2C(=O)N3[C@@H](C)c2ccc(Cl)cc2)cc1 (single isomer, unassigned) [Example 85]
200	O=C1Nc2cnc(-c3cccc4[nH]ccc34)nc2N2CCOC[C@H]12 (single isomer, unassigned) [Example 149]
5.01	O=C1Nc2cnc(-c3cccc4[nH]ccc34)nc2N2CCOC[C@@H]12 (single isomer, unassigned) [Example 150]
39.8	Cc1ccc([C@H](C)N2C(=O)[C@@H]3COCCN3c3nc(-c4cccc5[nH]ccc45)ncc32)cc1 (single isomer, unassigned) [Example 153]
3.98	CNC(=O)Nc1ccc(-c2ncc3c(n2)N2CCOCC2C(=O)N3[C@@H](C)c2ccc(Cl)cc2)cc1 (single isomer, unassigned) [Example 161]
398	c1cc(-c2ncc3c(n2)N2CCOCC2CN3)c2cc[nH]c2n1 (stereo not drawn) [Example 15, 2-(1H-pyrrolo[2,3-b]pyridin-4-yl)-5,6,6a,7,9,10-hexahydro-[1,4]oxazino[3,4-h]pteridine]
6310	Cc1c[nH]c2c(F)ccc(-c3ncc4c(n3)N3CCOCC3CN4Cc3ccc(S(C)(=O)=O)cc3)c12 (stereo not drawn) [Example 16, 2-(7-fluoro-3-methyl-1H-indol-4-yl)-5-(4-(methylsulfonyl)benzyl)-5,6,6a,7,9,10-hexahydro-[1,4]oxazino[3,4-h]pteridine]
39.8	CS(=O)(=O)c1ccc(CN2CC3COCCN3c3nc(-c4ccc(F)c5[nH]ccc45)ncc32)cc1 (stereo not drawn) [Example 17, 2-(7-fluoro-1H-indol-4-yl)-5-(4-(methylsulfonyl)benzyl)-5,6,6a,7,9,10-hexahydro-[1,4]oxazino[3,4-h]pteridine]
398	Cc1ccc(S(=O)(=O)N2CC3COCCN3c3nc(-c4cccc5[nH]ccc45)ncc32)cc1 (stereo not drawn) [Example 18, 2-(1H-indol-4-yl)-5-tosyl-5,6,6a,7,9,10-hexahydro-[1,4]oxazino[3,4-h]pteridine]
10	CS(=O)(=O)c1ccc(CN2CC3COCCN3c3nc(-c4cccc5[nH]ccc45)ncc32)cc1 (stereo not drawn) [Example 19, 2-(1H-indol-4-yl)-5-(4-(methylsulfonyl)benzyl)-5,6,6a,7,9,10-hexahydro-[1,4]oxazino[3,4-h]pteridine]
501	COc1ccc(CC(=O)N2CC3COCCN3c3nc(-c4cccc5[nH]ccc45)ncc32)cc1 (stereo not drawn) [Example 20, 1-(2-(1H-indol-4-yl)-6a,7,9,10-tetrahydro-[1,4]oxazino[3,4-h]pteridin-5(6H)-yl)-2-(4-methoxyphenyl)ethanone]

The remaining lines, values behind:

SMILES	IC50 [nM]
Nc1ncc(-c2ncc3c(n2)N2CCOCC2CN3)cn1 (stereo not drawn) [Example 1, 5-(5,6,6a,7,9,10-hexahydro-[1,4]oxazino[3,4-h]pteridin-2-yl)pyrimidin-2-amine]	31.6
c1cc(-c2ncc3c(n2)N2CCOCC2CN3)c2cc[nH]c2c1 (stereo not drawn) [Example 2, 2-(1H-indol-4-yl)-5,6,6a,7,9,10-hexahydro-[1,4]oxazino[3,4-h]pteridine]	50.1
c1cc(-c2ncc3c(n2)N2CCOCC2CN3CC2CC2)c2cc[nH]c2c1 (stereo not drawn) [Example 3, 5-(cyclopropylmethyl)-2-(1H-indol-4-yl)-5,6,6a,7,9,10-hexahydro-[1,4]oxazino[3,4-h]pteridine]	5.01
CS(=O)(=O)c1ccc(CN2CC3COCCN3c3nc(-c4cnc(N)nc4)ncc32)cc1 (stereo not drawn) [Example 4, 5-(5-(4-(methylsulfonyl)benzyl)-5,6,6a,7,9,10-hexahydro-[1,4]oxazino[3,4-h]pteridin-2-yl)pyrimidin-2-amine]	3.98
CS(=O)(=O)c1ccc(CN2CC3COCCN3c3nc(-c4cccc5[nH]ccc45)ncc32)c(Cl)c1 (stereo not drawn) [Example 5, 5-(2-chloro-4-(methylsulfonyl)benzyl)-2-(1H-indol-4-yl)-5,6,6a,7,9,10-hexahydro-[1,4]oxazino[3,4-h]pteridine]	10
CNC(=O)Nc1ccc(-c2ncc3c(n2)N2CCOCC2CN3Cc2ccc(S(C)(=O)=O)cc2Cl)cc1 (stereo not drawn) [Example 6, 1-(4-(5-(2-chloro-4-(methylsulfonyl)benzyl)-5,6,6a,7,9,10-hexahydro-[1,4]oxazino[3,4-h]pteridin-2-yl)phenyl)-3-methylurea]	10
CS(=O)(=O)c1ccc(CN2CC3COCCN3c3nc(-c4cnc(N)nc4)ncc32)c(Cl)c1 (stereo not drawn) [Example 7, 5-(5-(2-chloro-4-(methylsulfonyl)benzyl)-5,6,6a,7,9,10-hexahydro-[1,4]oxazin[3,4-h]pteridin-2-yl)pyrimidin-2-amine]	7.94
COc1ccc2c(-c3ncc4c(n3)N3CCOCC3CN4)c[nH]c2c1 (stereo not drawn) [Example 8, 2-(6-methoxy-1H-indol-3-yl)-5,6,6a,7,9,10-hexahydro-[1,4]oxazino[3,4-h]pteridine]	> 10000
COc1cccc2c(-c3ncc4c(n3)N3CCOCC3CN4)c[nH]c12 (stereo not drawn) [Example 9, 2-(7-methoxy-1H-indol-3-yl)-5,6,6a,7,9,10-hexahydro-[1,4]oxazino[3,4-h]pteridine]	> 10000
c1cc(-c2ncc3c(n2)N2CCOCC2CN3)c2nc[nH]c2c1 (stereo not drawn) [Example 10, 2-(1H-benzo[d]imidazol-4-yl)-5,6,6a,7,9,10-hexahydro-[1,4]oxazino[3,4-h]pteridine]	3160
Clc1cccc2c(-c3ncc4c(n3)N3CCOCC3CN4)c[nH]c12 (stereo not drawn) [Example 11, 2-(7-chloro-1H-indol-3-yl)-5,6,6a,7,9,10-hexahydro-[1,4]oxazino[3,4-h]pteridine]	> 10000
Oc1cc2c(-c3ncc4c(n3)N3CCOCC3CN4)cccc2[nH]1 (stereo not drawn) [Example 12, 4-(5,6,6a,7,9,10-hexahydro-[1,4]oxazino[3,4-h]pteridin-2-yl)-1H-indol-2-ol]	7940
CC(C)(O)c1ccc(CN2CC3COCCN3c3nc(-c4cccc5[nH]ccc45)ncc32)cc1 (stereo not drawn) [Example 13, 2-(4-((2-(1H-indol-4-yl)-6a,7,9,10-tetrahydro-[1,4]oxazino[3,4-h]pteridin-5(6H)-yl)methyl)phenyl)propan-2-ol]	15.8
COc1cc(-c2ncc3c(n2)N2CCOCC2CN3)ccn1 (stereo not drawn) [Example 14, 2-(2-methoxypyridin-4-yl)-5,6,6a,7,9,10-hexahydro-[1,4]oxazino[3,4-h]pteridine]	5010
